In ChEMBL document CHEMBL5523701, “Structure-based discovery of small molecule inhibitors of FKBP51-Hsp90 protein-protein interaction” (Eur J Med Chem, 2024):
Values belong to the molecule of their own block, whether it stands above or below them.

Assays:
[1] = target: T1, Peptidyl-prolyl cis-trans isomerase FKBP4 (Homo sapiens, UniProt Q02790); test: Inhibition of GST-tagged human FKBP52 expressed in Escherichia coli BL21 (DE3) using NH2-EDASRMEEVD-COOH peptide as substrate preincubated for 15 mins followed by substrate addition measured after 15 mins by Alpha Screen assay
T1 sequence (Q02790 whole entry): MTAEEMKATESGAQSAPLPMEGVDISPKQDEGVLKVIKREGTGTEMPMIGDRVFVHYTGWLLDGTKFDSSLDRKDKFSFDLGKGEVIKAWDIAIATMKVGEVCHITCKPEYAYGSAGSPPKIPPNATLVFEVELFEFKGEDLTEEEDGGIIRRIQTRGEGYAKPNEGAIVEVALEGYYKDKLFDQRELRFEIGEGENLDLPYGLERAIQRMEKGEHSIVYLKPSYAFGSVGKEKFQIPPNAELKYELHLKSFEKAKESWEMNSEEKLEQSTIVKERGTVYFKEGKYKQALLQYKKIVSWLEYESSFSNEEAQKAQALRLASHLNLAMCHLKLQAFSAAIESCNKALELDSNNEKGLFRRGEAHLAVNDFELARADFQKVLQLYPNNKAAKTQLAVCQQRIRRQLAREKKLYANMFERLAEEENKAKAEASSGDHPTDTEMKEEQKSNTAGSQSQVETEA

[2] = target: T2, Peptidyl-prolyl cis-trans isomerase FKBP5 (Homo sapiens, UniProt Q13451); test: Inhibition of GST-tagged human FKBP51 expressed in Escherichia coli BL21 (DE3) using NH2-EDASRMEEVD-COOH peptide as substrate preincubated for 15 mins followed by substrate addition measured after 15 mins by Alpha Screen assay
T2 sequence (Q13451 whole entry): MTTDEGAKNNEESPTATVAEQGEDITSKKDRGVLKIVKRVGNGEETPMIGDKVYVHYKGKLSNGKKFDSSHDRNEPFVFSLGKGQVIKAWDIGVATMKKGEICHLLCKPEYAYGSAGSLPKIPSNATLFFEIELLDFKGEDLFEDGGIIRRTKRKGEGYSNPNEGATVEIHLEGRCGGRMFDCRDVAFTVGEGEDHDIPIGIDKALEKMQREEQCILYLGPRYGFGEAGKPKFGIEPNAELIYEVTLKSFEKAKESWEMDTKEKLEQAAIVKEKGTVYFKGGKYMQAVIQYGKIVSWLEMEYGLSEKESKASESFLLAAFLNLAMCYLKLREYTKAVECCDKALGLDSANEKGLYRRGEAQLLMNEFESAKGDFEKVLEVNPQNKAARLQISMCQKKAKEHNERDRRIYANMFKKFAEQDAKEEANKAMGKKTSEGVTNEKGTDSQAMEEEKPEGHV

[3] = target: T3, DnaJ homolog subfamily C member 7 (Homo sapiens, UniProt Q99615); test: Inhibition of GST-tagged human DNAJC7 expressed in Escherichia coli BL21 (DE3) using NH2-EDASRMEEVD-COOH peptide as substrate preincubated for 15 mins followed by substrate addition measured after 15 mins by Alpha Screen assay
T3 sequence (Q99615 whole entry): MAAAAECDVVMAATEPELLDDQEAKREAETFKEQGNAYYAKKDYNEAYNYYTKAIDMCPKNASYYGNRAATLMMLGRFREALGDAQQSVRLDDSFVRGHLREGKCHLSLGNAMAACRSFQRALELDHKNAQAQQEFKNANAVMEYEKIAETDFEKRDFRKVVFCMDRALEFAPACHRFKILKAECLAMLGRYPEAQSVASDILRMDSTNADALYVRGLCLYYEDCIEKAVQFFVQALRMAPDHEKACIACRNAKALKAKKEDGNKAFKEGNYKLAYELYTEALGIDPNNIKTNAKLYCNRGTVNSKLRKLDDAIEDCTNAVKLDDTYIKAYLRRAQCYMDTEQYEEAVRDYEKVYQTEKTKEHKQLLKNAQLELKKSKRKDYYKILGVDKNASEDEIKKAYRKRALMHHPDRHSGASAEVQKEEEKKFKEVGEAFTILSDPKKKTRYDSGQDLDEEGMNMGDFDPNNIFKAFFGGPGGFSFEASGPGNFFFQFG

[4] = target: T4, E3 ubiquitin-protein ligase CHIP (Homo sapiens, UniProt Q9UNE7); test: Inhibition of GST-tagged human CHIP expressed in Escherichia coli BL21 (DE3) using NH2-EDASRMEEVD-COOH peptide as substrate preincubated for 15 mins followed by substrate addition measured after 15 mins by Alpha Screen assay
T4 sequence (Q9UNE7 whole entry): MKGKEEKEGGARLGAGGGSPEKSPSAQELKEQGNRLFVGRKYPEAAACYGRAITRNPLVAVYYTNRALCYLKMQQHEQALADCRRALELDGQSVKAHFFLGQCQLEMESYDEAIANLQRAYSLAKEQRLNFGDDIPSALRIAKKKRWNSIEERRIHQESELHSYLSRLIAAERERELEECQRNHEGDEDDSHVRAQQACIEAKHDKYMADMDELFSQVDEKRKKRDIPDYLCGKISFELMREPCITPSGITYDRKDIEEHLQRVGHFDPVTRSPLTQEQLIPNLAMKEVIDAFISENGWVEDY

[5] = Inhibition of GST-tagged FKBP51 Y355F mutant (unknown origin) using NH2-EDASRMEEVD-COOH peptide as substrate preincubated for 15 mins followed by substrate addition measured after 15 mins by Alpha Screen assay; parameters: species or system Homo sapiens
[6] = target: Small glutamine-rich tetratricopeptide repeat-containing protein alpha (Homo sapiens, UniProt O43765); test: Inhibition of GST-tagged human SGTA expressed in Escherichia coli BL21 (DE3) using NH2-EDASRMEEVD-COOH peptide as substrate preincubated for 15 mins followed by substrate addition measured after 15 mins by Alpha Screen assay
[7] = target: T5, AH receptor-interacting protein (Homo sapiens, UniProt O00170); test: Inhibition of GST-tagged human AIP expressed in Escherichia coli BL21 (DE3) using NH2-EDASRMEEVD-COOH peptide as substrate preincubated for 15 mins followed by substrate addition measured after 15 mins by Alpha Screen assay
T5 sequence (O00170 whole entry): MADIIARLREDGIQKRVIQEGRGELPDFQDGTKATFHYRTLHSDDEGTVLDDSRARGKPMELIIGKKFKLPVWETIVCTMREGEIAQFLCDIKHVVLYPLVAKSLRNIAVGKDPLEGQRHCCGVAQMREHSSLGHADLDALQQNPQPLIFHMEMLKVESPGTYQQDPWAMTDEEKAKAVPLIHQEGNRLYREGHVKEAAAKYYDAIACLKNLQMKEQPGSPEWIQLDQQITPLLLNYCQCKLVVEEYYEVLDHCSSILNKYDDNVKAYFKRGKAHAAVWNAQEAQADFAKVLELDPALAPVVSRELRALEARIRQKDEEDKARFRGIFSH

[8] = target: Stress-induced-phosphoprotein 1 (Homo sapiens, UniProt P31948); test: Inhibition of GST-tagged human HOP expressed in Escherichia coli BL21 (DE3) using NH2-EDASRMEEVD-COOH peptide as substrate preincubated for 15 mins followed by substrate addition measured after 15 mins by Alpha Screen assay
[9] = target: T6, Mitochondrial import receptor subunit TOM70 (Homo sapiens, UniProt O94826); test: Inhibition of GST-tagged human TOM70 expressed in Escherichia coli BL21 (DE3) using NH2-EDASRMEEVD-COOH peptide as substrate preincubated for 15 mins followed by substrate addition measured after 15 mins by Alpha Screen assay
T6 sequence (O94826 whole entry): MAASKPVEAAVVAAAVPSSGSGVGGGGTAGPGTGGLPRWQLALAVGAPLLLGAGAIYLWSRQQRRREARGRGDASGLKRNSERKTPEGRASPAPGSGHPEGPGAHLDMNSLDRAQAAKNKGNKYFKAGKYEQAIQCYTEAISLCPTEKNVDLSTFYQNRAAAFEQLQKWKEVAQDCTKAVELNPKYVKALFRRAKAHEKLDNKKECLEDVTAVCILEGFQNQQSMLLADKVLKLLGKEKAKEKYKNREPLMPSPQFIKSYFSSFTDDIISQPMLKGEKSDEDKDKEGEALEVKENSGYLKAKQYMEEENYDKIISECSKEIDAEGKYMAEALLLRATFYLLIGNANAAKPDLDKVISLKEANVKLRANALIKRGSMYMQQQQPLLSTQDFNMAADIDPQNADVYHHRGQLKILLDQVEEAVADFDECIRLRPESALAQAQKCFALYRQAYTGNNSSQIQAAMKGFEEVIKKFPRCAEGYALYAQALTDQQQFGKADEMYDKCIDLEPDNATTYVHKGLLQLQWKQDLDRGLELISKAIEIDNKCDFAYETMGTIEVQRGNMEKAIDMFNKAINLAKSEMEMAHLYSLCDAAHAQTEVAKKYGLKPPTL

[10] = Inhibition of GST-tagged FKBP51 N381Y mutant (unknown origin) using NH2-EDASRMEEVD-COOH peptide as substrate preincubated for 15 mins followed by substrate addition measured after 15 mins by Alpha Screen assay; parameters: species or system Homo sapiens
[11] = target: T7, Serine/threonine-protein phosphatase 5 (Homo sapiens, UniProt P53041); test: Inhibition of GST-tagged human PP5 expressed in Escherichia coli BL21 (DE3) using NH2-EDASRMEEVD-COOH peptide as substrate preincubated for 15 mins followed by substrate addition measured after 15 mins by Alpha Screen assay
T7 sequence (P53041 whole entry): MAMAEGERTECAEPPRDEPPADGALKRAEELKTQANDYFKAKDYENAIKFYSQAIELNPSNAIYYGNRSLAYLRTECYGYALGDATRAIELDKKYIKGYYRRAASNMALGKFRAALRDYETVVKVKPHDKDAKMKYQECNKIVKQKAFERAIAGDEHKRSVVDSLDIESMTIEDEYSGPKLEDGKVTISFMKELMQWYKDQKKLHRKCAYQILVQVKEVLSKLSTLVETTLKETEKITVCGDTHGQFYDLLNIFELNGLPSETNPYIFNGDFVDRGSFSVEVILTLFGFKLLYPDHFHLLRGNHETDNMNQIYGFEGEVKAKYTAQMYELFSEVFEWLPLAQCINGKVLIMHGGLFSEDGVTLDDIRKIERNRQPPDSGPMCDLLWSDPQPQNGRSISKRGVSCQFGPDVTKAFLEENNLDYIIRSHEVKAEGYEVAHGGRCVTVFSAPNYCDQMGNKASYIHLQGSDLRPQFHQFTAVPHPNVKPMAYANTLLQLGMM

[12] = buffer
Description: Solubility of compound in aqueous solution

Chain of Small glutamine-rich tetratricopeptide repeat-containing protein alpha (O43765 whole entry): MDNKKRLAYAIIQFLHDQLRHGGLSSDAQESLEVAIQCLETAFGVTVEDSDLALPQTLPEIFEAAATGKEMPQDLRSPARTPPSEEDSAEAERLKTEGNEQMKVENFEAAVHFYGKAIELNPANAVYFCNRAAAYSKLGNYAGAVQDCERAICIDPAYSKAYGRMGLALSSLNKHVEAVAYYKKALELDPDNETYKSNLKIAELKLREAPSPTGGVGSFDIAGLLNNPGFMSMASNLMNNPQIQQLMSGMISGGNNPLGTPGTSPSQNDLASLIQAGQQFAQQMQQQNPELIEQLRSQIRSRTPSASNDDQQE
Chain of Stress-induced-phosphoprotein 1 (P31948 whole entry): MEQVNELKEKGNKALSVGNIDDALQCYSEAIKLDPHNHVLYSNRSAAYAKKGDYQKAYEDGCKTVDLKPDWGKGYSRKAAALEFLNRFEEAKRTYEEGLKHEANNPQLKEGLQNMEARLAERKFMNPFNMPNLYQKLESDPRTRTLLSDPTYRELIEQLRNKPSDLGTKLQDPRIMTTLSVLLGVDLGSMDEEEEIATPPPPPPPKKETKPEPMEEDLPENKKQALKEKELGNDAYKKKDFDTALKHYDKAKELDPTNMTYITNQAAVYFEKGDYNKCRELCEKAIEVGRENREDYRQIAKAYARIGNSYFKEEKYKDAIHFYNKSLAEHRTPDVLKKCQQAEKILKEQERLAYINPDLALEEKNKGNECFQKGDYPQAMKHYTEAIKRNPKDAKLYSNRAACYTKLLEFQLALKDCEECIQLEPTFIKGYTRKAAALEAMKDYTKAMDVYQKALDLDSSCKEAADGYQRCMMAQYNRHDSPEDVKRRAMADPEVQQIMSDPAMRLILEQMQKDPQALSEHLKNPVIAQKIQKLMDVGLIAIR

IC50 [1]: 6 µM
Structure (SMILES): CCS(=O)(=O)Nc1ccc(-c2nnc(SCC(=O)c3c(C)c(C)cc(C)c3C)o2)cc1

IC50 [1]: 3 µM
Structure (SMILES): CCOC(=O)c1c(NC(=O)CSc2nnc(-c3cccc(O)c3)o2)sc(C)c1C

IC50 [1]: 8 µM
Structure (SMILES): CCOC(=O)c1c(NC(=O)CSc2n[nH]c(CNc3ccccc3)n2)sc(C)c1C

IC50 [1]: 9 µM
Structure (SMILES): CCOC(=O)CC(=O)CSc1nc(C)c2cc(OCC)ccc2n1

IC50 [1]: 5 µM
Structure (SMILES): CCOc1ccc2cc(C#N)c(SCC(=O)NCCc3ccccc3)nc2c1

IC50 [1]: 3 µM | IC50 [2]: 2 µM
Structure (SMILES): CCc1nnc(NC(=O)CSc2nc(-c3ccc(C)cc3)cc(-c3ccc(OC)cc3)c2C#N)o1

IC50 [1]: 3 µM
Structure (SMILES): CCC(=O)Nc1ccc(NC(=O)CSc2nc3cc4c(cc3cc2C)CCC4)cc1

IC50 [1]: 5 µM
Structure (SMILES): CCC(=O)Nc1ccc(NC(=O)CSc2nc3cc4c(cc3cc2C)CCC4)cc1C

IC50 [1]: > 100 µM
Structure (SMILES): Cc1ccc(NC(=O)c2cc(NC(=O)c3ccccc3)cc(NC(=O)c3ccccc3)c2)cc1C

IC50 [1]: 6 µM
Structure (SMILES): O=C(CSc1nnc(-c2ccc(S(=O)(=O)N3CCCC3)cc2)o1)Nc1ccc(F)cc1

IC50 [1]: 6 µM
Structure (SMILES): CCOc1ccc2cc(C#N)c(SCC(=O)Nc3cccc(F)c3)nc2c1

IC50 [3]: 1 µM | IC50 [4]: 1 µM | IC50 [5]: 40 µM | IC50 [6]: 0.1 µM | IC50 [7]: 10 µM | IC50 [8]: 10 µM | IC50 [9]: 1.5 µM | IC50 [10]: 0.05 µM | IC50 [11]: 0.03 µM | solubility [12]: Insoluble | solubility: Insoluble
Structure (SMILES): CCC1CCc2c(sc(NC(=O)CCCC(=O)Nc3sc4c(c3C(N)=O)CCC(CC)C4)c2C(N)=O)C1 (stereo not drawn)
